We go through ten compounds from PMC10052977, “α,ω-Diacyl-Substituted Analogues of Natural and Unnatural Polyamines: Identification of Potent Bactericides That Selectively Target Bacterial Membranes” (International Journal of Molecular Sciences, 2023).

≈ marks a conversion by molar mass, not a printed value. Some results are limits rather than exact numbers.

The MIC is the least concentration at which growth counts as inhibited.

Series [1] concerns Staphylococcus aureus ATCC 25923 or ATCC 29213. In words: MIC, broth dilution (CA-SFM). It is filed as cell-based. The conditions noted are these: Staphylococcus aureus ATCC 25923 or ATCC 29213; mean (n = 3); read-out: MIC S. a. (In general: Dilution methods test growth across graded concentrations, often in twofold steps.)
In series [2] the test system is Pseudomonas aeruginosa PAO1 or ATCC 27853. Briefly: MIC, broth dilution (CA-SFM). Format: cell-based. The conditions noted are these: mean (n = 3).
The subject of a further series is human red blood cells. In words: Hemolytic assay. It is filed as cell-based. The conditions noted are these: mean (n = 2). The protocol: Human whole blood was washed three times with 3 volumes of 0.9% NaCl and then resuspended in same to a concentration of 0.5 × 10^8 cells/mL, as determined by manual cell count in a Neubauer hemocytometer. The washed cells were then added to the 384-well compound-containing plates for a final volume of 50 μL. After a 10 min shake on a plate shaker, the plates were then incubated for 1 h at 37 °C. After incubation, the plates were centrifuged at 1000× g for 10 min to pellet cells and debris; 25 μL of the supernatant was then transferred to a polystyrene 384-well assay plate. Hemolysis was determined by measuring the supernatant absorbance at […] (OD405). The absorbance was measured using a Tecan M1000 Pro monochromator plate reader. HC10 and HC50 (concentration at 10% and 50% hemolysis, respectively) were calculated by curve fitting the inhibition values vs. log (concentration) using a sigmoidal dose–response function with variable fitting values for top, bottom and slope.

Series [3] is described as follows: Cytotoxicity assay (resazurin). Format: cell-based, human. To be noted: human; HEK293 cells; mean (n = 2); highest dose tested 32 μg/mL; read-out: Cytotoxicity (concentration of compound at 50% cytotoxicity, IC50).
The test system of series [4] is Candida albicans ATCC90028. In words: Antifungal MIC, CO-ADD. Format: cell-based. To be noted: mean (n = 2). As to the method:
(§1) For the antifungal assay, fungi strains were cultured for 3 days on YPD agar at 30 °C. A yeast suspension of 1 × 10^6 to 5 × 10^6 CFU/mL was prepared from five colonies. These stock suspensions were diluted with yeast nitrogen base (YNB) (Becton Dickinson, 233520) broth to a final concentration of 2.5 × 10^3 CFU/mL. […] Plates were covered and incubated at 35 °C for 36 h without shaking. C. albicans MICs were determined by measuring the absorbance at OD530. […] Fluconazole was used as a positive fungal inhibitor standard for C. albicans and C. neoformans. […] Quality control (QC) of the assays was determined by antimicrobial controls and Z’-factor (using positive and negative controls).

In series [5] the test system is Cryptococcus neoformans ATCC208821. In words: Antifungal MIC, CO-ADD. It is filed as cell-based. To be noted: ATCC208821, Cryptococcus neoformans ATCC208821, mean (n = 2). The protocol: as §1
In series [6] the test system is Acinetobacter baumannii ATCC19606. Briefly: MIC, CO-ADD broth microdilution. To be noted: mean (n = 2). Format: cell-based.
The test system of series [7] is Klebsiella pneumoniae ATCC700603. In words: MIC, CO-ADD broth microdilution. To be noted: mean (n = 2). Format: cell-based.
The test system of a further series is MRSA ATCC 43300. Briefly: MIC, CO-ADD broth microdilution. To be noted: for MIC: Staphylococcus aureus, MRSA ATCC 43300, mean (n = 2), read-out: MIC MRSA. Format: cell-based, Staphylococcus aureus.
Series [8] concerns Escherichia coli ATCC 25922. In words: MIC, CO-ADD broth microdilution. It is filed as cell-based. To be noted: ATCC25922, mean (n = 2).

As for `O=C(CC(c1ccccc1)(c1ccccc1)c1ccccc1)NCCCNCCCCCCCCCCNCCCNC(=O)CC(c1ccccc1)(c1ccccc1)c1ccccc1.O=C(O)C(F)(F)F.O=C(O)C(F)(F)F` [Compound 18e, N^1,N^10-Bis(3-(3,3,3-triphenylpropanamido)propyl)decane-1,10-diaminium 2,2,2-trifluoroacetate], the minimum inhibitory concentration (MIC) in series [1] was 1.56 µM; in [2], 200 µM; in [4] it was less than 0.23 µM; in [5] it was less than 0.23 µM; in series [6], less than 0.23 µM; in [7], more than 29.5 µM. The MIC with MRSA ATCC 43300 is less than 0.23 µM; in series [8], more than 29.5 µM. Moreover, the “Hemolysis (HC10, concentration at 10% hemolytic activity)” value with human red blood cells was not above 0.231 µM. Further, the IC50 at 20 h in series [3] was 7.23 µM.
For the compound `O=C(CCC(=O)NCCC(c1ccccc1)c1ccccc1)NCCCNCCCCCCCNCCCNC(=O)CCC(=O)NCCC(c1ccccc1)c1ccccc1.O=C(O)C(F)(F)F.O=C(O)C(F)(F)F` [Compound 16c, N^1,N^7-Bis(3-(4-((3,3-diphenylpropyl)amino)-4-oxobutanamido)propyl)heptane-1,7-diaminium 2,2,2-trifluoroacetate], the minimal inhibitory concentration (MIC) in series [1] is 24 µM; in [2], 480 µM; in series [4], more than 30.2 µM; in series [5], 30.2 µM; in [6] it was more than 30.2 µM; in [7], more than 30.2 µM. The values for the MIC (with MRSA ATCC 43300; in [8]) were not above 0.24 µM and more than 30.2 µM, respectively. Also, the “Hemolysis (HC10, concentration at 10% hemolytic activity)” value in the series on human red blood cells was more than 30.2 µM. Further, the IC50 at 20 h in series [3] is more than 30.2 µM.
For `O=C(NCCCNCCCCNCCCNC(=O)C(c1ccccc1)(c1ccccc1)c1ccccc1)C(c1ccccc1)(c1ccccc1)c1ccccc1.O=C(O)C(F)(F)F.O=C(O)C(F)(F)F` [Compound 17a, N^1,N^4-Bis(3-(2,2,2-triphenylacetamido)propyl)butane-1,4-diaminium 2,2,2-trifluoroacetate], the minimum inhibitory concentration (MIC) in series [1] is 6.25 µM; in series [2] it was 300 µM; in [4], more than 33 µM; in series [5], less than 0.26 µM; in series [6] it was 8.24 µM; in [7], more than 33 µM. Further, the MIC in the series with MRSA ATCC 43300 was less than 0.26 µM; in [8], 1.03 µM. Also, in the series with human red blood cells, the “Hemolysis (HC10, concentration at 10% hemolytic activity)” value amounted to 5.57 µM. Besides, in series [3], the IC50 at 20 h was 0.329 µM.
Regarding `O=C(CC(c1ccccc1)(c1ccccc1)c1ccccc1)NCCCNCCCCCCCCNCCCNC(=O)CC(c1ccccc1)(c1ccccc1)c1ccccc1.O=C(O)C(F)(F)F.O=C(O)C(F)(F)F` [Compound 18d, N^1,N^8-Bis(3-(3,3,3-triphenylpropanamido)propyl)octane-1,8-diaminium 2,2,2-trifluoroacetate], the MIC in series [1] is 3.12 µM; in series [2], 200 µM; in series [4], less than 0.24 µM; in series [5], 7.6 µM; in series [6], 7.6 µM; in [7], more than 30.3 µM. For the same compound, the MIC in the series on MRSA ATCC 43300 is less than 0.24 µM; in [8], 7.58 µM. For the same compound, the “Hemolysis (HC10, concentration at 10% hemolytic activity)” value in the series with human red blood cells amounted to 3.17 µM. For the same compound, the IC50 at 20 h in series [3] is 9.7 µM.
For the compound `O=C(CCc1ccccc1)NCCCNCCCCCCCCNCCCNC(=O)CCc1ccccc1.O=C(O)C(F)(F)F.O=C(O)C(F)(F)F` [Compound 13d, N^1,N^8-Bis(3-(3-phenylpropanamido)propyl)octane-1,8-diaminium 2,2,2-trifluoroacetate], the minimal inhibitory concentration (MIC) in [1] is more than 266 µM; in series [2], more than 266 µM; in series [4], more than 42.6 µM; in series [5] it was more than 42.6 µM; in series [6] it was more than 42.6 µM; in series [7], more than 42.6 µM. Moreover, the MIC (in the series on MRSA ATCC 43300; in series [8]) was more than 42.6 µM each time. Also, the “Hemolysis (HC10, concentration at 10% hemolytic activity)” value in the series on human red blood cells was more than 42.6 µM. For the same compound, the IC50 at 20 h in [3] was more than 42.6 µM.
For `O=C(CCC(=O)NCCC(c1ccccc1)c1ccccc1)NCCCNCCCCCCNCCCNC(=O)CCC(=O)NCCC(c1ccccc1)c1ccccc1` [Compound 16b, N^1,N^6-Bis(3-(4-((3,3-diphenylpropyl)amino)-4-oxobutanamido)propyl)hexane-1,6-diaminium 2,2,2-trifluroracetate], the minimal inhibitory concentration (MIC) is 24 µM (≈ 19.6 µg/mL) in series [1]; 480 µM (≈ 392 µg/mL) in series [2]; more than 30.6 µM in series [4]; more than 30.6 µM in series [5]; more than 30.6 µM in series [6]; more than 30.6 µM in series [7]. For the same compound, the minimal inhibitory concentration (MIC) in the series on MRSA ATCC 43300 is not above 0.24 µM; in series [8] it was more than 30.6 µM. Also, the “Hemolysis (HC10, concentration at 10% hemolytic activity)” value in the series with human red blood cells is more than 30.6 µM. Moreover, in series [3], the IC50 at 20 h is more than 30.6 µM.
With `O=C(CCc1ccccc1)NCCCNCCCCCCCCCCNCCCNC(=O)CCc1ccccc1.O=C(O)C(F)(F)F.O=C(O)C(F)(F)F` [Compound 13e, N^1,N^10-Bis(3-(3-phenylpropanamido)propyl)decane-1,10-diaminium 2,2,2-trifluoroacetate], the MIC in series [1] is 32 µM; in series [2], 642 µM; in series [4] it was more than 41.1 µM; in series [5], 41.1 µM; in series [6] it was more than 41.1 µM; in series [7], more than 41.1 µM. Moreover, the figures for the minimal inhibitory concentration (MIC) (in the series on MRSA ATCC 43300; in series [8]) were 10.3 µM and 41.1 µM, respectively. Besides, in the series with human red blood cells, the “Hemolysis (HC10, concentration at 10% hemolytic activity)” value was more than 41.1 µM. Besides, the IC50 at 20 h in series [3] was more than 41.1 µM. In the series on MRSA ATCC 43300 (MRSA), the “activity towards MRSA” value is reported as “weak”.
With `O=C(CC(c1ccccc1)c1ccccc1)NCCCNCCCCCCCCCCNCCCNC(=O)CC(c1ccccc1)c1ccccc1.O=C(O)C(F)(F)F.O=C(O)C(F)(F)F` [Compound 15e, N^1,N^10-Bis(3-(3,3-diphenylpropanamido)propyl)decane-1,10-diaminium 2,2,2-trifluoroacetate], the minimum inhibitory concentration (MIC) in series [1] is 3.13 µM; in series [2] it was 200 µM; in series [4], more than 34.4 µM; in series [5], more than 34.4 µM; in series [6] it was 2.15 µM; in series [7], more than 34.4 µM. Besides, the MIC (in the series on MRSA ATCC 43300; in [8]) was not above 0.27 µM throughout. Moreover, the “Hemolysis (HC10, concentration at 10% hemolytic activity)” value in the series on human red blood cells is more than 34.4 µM. Also, the IC50 at 20 h in series [3] is more than 34.4 µM.
As for `O=C(NCCCNCCCCCCCCCCNCCCNC(=O)C(c1ccccc1)(c1ccccc1)c1ccccc1)C(c1ccccc1)(c1ccccc1)c1ccccc1.O=C(O)C(F)(F)F.O=C(O)C(F)(F)F` [Compound 17e, N^1,N^10-Bis(3-(2,2,2-triphenylacetamido)propyl)decane-1,10-diaminium 2,2,2-trifluoroacetate], the MIC is 3.12 µM in series [1]; 300 µM in series [2]; more than 30.3 µM in series [4]; less than 0.23 µM in [5]; more than 30.3 µM in series [6]; more than 30.3 µM in series [7]. The minimum inhibitory concentration (MIC) (in the series with MRSA ATCC 43300; in series [8]) was less than 0.23 µM in each case. In the series on human red blood cells, the “Hemolysis (HC10, concentration at 10% hemolytic activity)” value was not above 0.234 µM. In addition, the IC50 at 20 h in series [3] was more than 30.3 µM.
With `O=C(NCCCNCCCCCCCNCCCNC(=O)C(c1ccccc1)(c1ccccc1)c1ccccc1)C(c1ccccc1)(c1ccccc1)c1ccccc1.O=C(O)C(F)(F)F.O=C(O)C(F)(F)F` [Compound 17c, N^1,N^7-Bis(3-(2,2,2-triphenylacetamido)propyl)heptane-1,7-diaminium 2,2,2-trifluoroacetate], the MIC stood at 12.5 µM in series [1]; 300 µM in series [2]; 15.8 µM in [4]; 15.8 µM in series [5]; 3.95 µM in [6]; 31.6 µM in series [7]. Moreover, the MIC in the series on MRSA ATCC 43300 was less than 0.25 µM; in series [8], 7.9 µM. In addition, the “Hemolysis (HC10, concentration at 10% hemolytic activity)” value with human red blood cells is 8.16 µM. In addition, the IC50 at 20 h in series [3] is not above 0.247 µM.
